In the supplement of paper PMC10307832:

Tests used:
Test in all cases: relative viability (nuclei count vs DMSO), 5 days (fraction); higher = more cells survive
Idelalisib = compound: CC[C@H](Nc1ncnc2[nH]cnc12)c1nc2cccc(F)c2c(=O)n1-c1ccccc1 [Idelalisib]
Summary of the method: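 For viability, nuclei in each treated well were divided by nuclei in vehicle wells and the median across plates was taken. Lung cancer cell lines in 1536-well plates were pinned with five library-drug doses (not always all listed) spaced by √10, cultured 5 days without medium change, and imaged at 4× after Hoechst staining, with plates passing only at control CV below 25% and at least one doubling.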

Idelalisib + Palbociclib = compound: CC[C@H](Nc1ncnc2[nH]cnc12)c1nc2cccc(F)c2c(=O)n1-c1ccccc1 [Idelalisib] + CC(=O)c1c(C)c2cnc(Nc3ccc(N4CCNCC4)cn3)nc2n(C2CCCC2)c1=O [Palbociclib] (partner 0.5 µM)
Summary of the method: (§1)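 Medians of duplicate plates are given as relative viability. That measure is the nuclei count in treated wells divided by the count in vehicle wells. Counts were taken on 4× images of lung cancer cell lines in 1536-well plates, 5 days after pin-tool dosing the day after seeding with one drug alone or a fixed anchor-drug dose plus five library-drug doses (not always all listed) in √10 steps.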

Pemetrexed + Bortezomib = compound: Nc1nc2[nH]cc(CCc3ccc(C(=O)N[C@@H](CCC(=O)O)C(=O)O)cc3)c2c(=O)[nH]1 [Pemetrexed] + CC(C)C[C@H](NC(=O)[C@H](Cc1ccccc1)NC(=O)c1cnccn1)B(O)O [Bortezomib] (partner 0.002 µM)
Summary of the method: as §1

Pemetrexed + Linsitinib = compound: Nc1nc2[nH]cc(CCc3ccc(C(=O)N[C@@H](CCC(=O)O)C(=O)O)cc3)c2c(=O)[nH]1 [Pemetrexed] + C[C@]1(O)C[C@@H](c2nc(-c3ccc4ccc(-c5ccccc5)nc4c3)c3c(N)nccn32)C1 [Linsitinib] (partner 1 µM)
Summary of the method: as §1

| Cell Line | relative viability (Idelalisib; 0.04 µM) | relative viability (Idelalisib; 0.1265 µM) | relative viability (Idelalisib; 0.4 µM) | relative viability (Idelalisib; 1.265 µM) | relative viability (Idelalisib; 4 µM) | relative viability (Idelalisib + Palbociclib; first compound 0.04 µM) | relative viability (Idelalisib + Palbociclib; first compound 0.1265 µM) | relative viability (Idelalisib + Palbociclib; first compound 0.4 µM) | relative viability (Idelalisib + Palbociclib; first compound 1.265 µM) | relative viability (Idelalisib + Palbociclib; first compound 4 µM) | relative viability (Pemetrexed + Bortezomib; first compound 0.002 µM) | relative viability (Pemetrexed + Bortezomib; first compound 0.006325 µM) | relative viability (Pemetrexed + Bortezomib; first compound 0.02 µM) | relative viability (Pemetrexed + Bortezomib; first compound 0.06325 µM) | relative viability (Pemetrexed + Bortezomib; first compound 0.2 µM) | relative viability (Pemetrexed + Linsitinib; first compound 0.002 µM) | relative viability (Pemetrexed + Linsitinib; first compound 0.006325 µM) | relative viability (Pemetrexed + Linsitinib; first compound 0.02 µM) | relative viability (Pemetrexed + Linsitinib; first compound 0.06325 µM) | relative viability (Pemetrexed + Linsitinib; first compound 0.2 µM) |
| --- | --- | --- | --- | --- | --- | --- | --- | --- | --- | --- | --- | --- | --- | --- | --- | --- | --- | --- | --- | --- |
| SW 900 | 0.855 | 0.851 | 0.701 | 0.853 | 0.696 | 0.493 | 0.543 | 0.397 | 0.531 | 0.407 | – | – | – | – | – | – | – | – | – | – |
| PC-3 [JPC-3] | 1.19 | 1.05 | 1.03 | 1.02 | 0.915 | 0.557 | 0.525 | 0.584 | 0.489 | 0.539 | 0.66 | 0.74 | 0.925 | 0.854 | 0.772 | 0.876 | 0.923 | 0.951 | 0.981 | 0.944 |
| NCI-H1703 | 0.916 | 1.07 | 0.809 | 0.832 | 0.509 | – | – | – | – | – | 0.277 | 0.224 | 0.605 | 0.248 | 0.271 | 0.889 | 0.943 | 1.08 | 0.64 | 0.731 |
| EPLC-272H | 1.07 | 0.9 | 0.815 | 0.902 | 0.873 | 0.724 | 0.346 | 0.29 | 0.307 | 0.322 | 0.682 | 0.888 | 1.16 | 0.848 | 0.926 | 1.06 | 1.07 | 1.19 | 0.959 | 1.12 |
| NCI-H1792 | 1.08 | 0.942 | 0.653 | 1.09 | 0.85 | 0.632 | 0.668 | 0.557 | 0.668 | 0.55 | 0.931 | 0.969 | 0.966 | 0.943 | 0.927 | 0.499 | 0.532 | 0.57 | 0.469 | 0.519 |
| NCI-H2085 | 1.05 | 0.995 | 0.91 | 0.955 | 0.729 | 0.466 | 0.445 | 0.483 | 0.422 | 0.464 | 1.01 | 1.19 | 1.04 | 1.09 | 1.05 | 0.872 | 0.828 | 0.881 | 0.942 | 0.97 |
| LK-2 | 1.22 | 1 | – | 1.06 | 0.87 | 0.603 | 0.832 | – | 0.609 | 0.659 | – | – | – | – | – | 0.339 | 0.307 | 0.514 | 0.448 | 0.341 |
| NCI-H1395 | 1.07 | 0.991 | 0.846 | 0.912 | 0.741 | 0.636 | 0.615 | 0.595 | 0.564 | 0.453 | – | – | – | – | – | 0.99 | 0.975 | 1.1 | 1.1 | 0.998 |
| ABC-1 | 0.917 | 0.938 | 0.955 | 0.895 | 0.961 | 0.546 | 0.6 | 0.664 | 0.686 | 0.709 | 0.244 | 0.297 | 0.322 | 0.214 | 0.292 | 0.904 | 0.804 | 0.828 | 0.753 | 0.713 |
| RERF-LC-KJ | 1.11 | 0.99 | 0.955 | 0.959 | 0.817 | 1.12 | 1.06 | 1.02 | 0.965 | 0.759 | 1.13 | 1.06 | 1.13 | 1.04 | 0.82 | 0.856 | 0.845 | 0.926 | 0.912 | 0.752 |
| LU99A | 1.08 | 1.08 | 0.814 | 1.14 | 1.05 | 0.41 | 0.424 | 0.357 | 0.429 | 0.39 | 1.05 | 1.09 | 1.17 | 0.952 | 0.948 | 0.501 | 0.496 | 0.634 | 0.44 | 0.345 |
| NCI-H650 | 0.938 | 1.01 | 0.885 | 1.05 | 0.889 | 0.327 | 0.314 | 0.309 | 0.312 | 0.296 | 0.67 | 0.828 | 0.748 | 0.853 | 0.866 | 0.651 | 0.983 | 1.1 | 0.944 | 0.839 |
| NCI-H2347 | 1.1 | 1.03 | 0.904 | 1.14 | 0.866 | 0.48 | 0.453 | 0.445 | 0.42 | 0.286 | 0.678 | 1.26 | 1.07 | 0.903 | 0.599 | 0.874 | 0.932 | 0.938 | 0.716 | 0.521 |
| HARA | 1.02 | 1.05 | 0.783 | 1.23 | 0.794 | 0.334 | 0.223 | 0.261 | 0.238 | 0.225 | 0.567 | 1.12 | 1.17 | 0.846 | 0.453 | 0.876 | 0.969 | 0.922 | 0.822 | 0.292 |
| NCI-H2228 | 1.22 | 0.84 | 0.788 | 1.12 | 0.972 | 0.633 | 0.846 | 0.737 | 0.958 | 0.743 | 0.934 | 0.918 | 1.07 | 0.754 | 0.339 | 0.708 | 0.472 | 0.906 | 0.553 | 0.425 |
| EKVX | 0.925 | 1.01 | 0.849 | 0.854 | 0.8 | 0.362 | 0.373 | 0.358 | 0.325 | 0.298 | 0.939 | 0.946 | 0.971 | 0.979 | 0.553 | 0.957 | 1.03 | 1.02 | 0.953 | 0.718 |
